Assay results taken from patent US20170156315A1, “METHODS AND COMPOSITIONS OF GRANULE FORMULATIONS” (AgroFresh Inc., priority 2010, published 2017).
“And” between values parts separate entries of the source, which are not always exact repeats. Identical values can stand only once.

System: rice plants
Assay: Treatment of rice plants in open fields, yield
Assay type: in vivo
Details: rice field trial, single application of 50 g a.i./hectare 1-MCP with sample 7-3
Description: Assessment of Improvement to Crop Yield—Each treated plot is compared to an appropriate untreated control plot. The outcome is reported as “DY %” (Delta Yield Percent), which is defined as follows:
where YT=yield of the treated plot, and where YU=yield of the untreated plot. For example, DY of 10% means the treated plot has yield that is 10% higher than the untreated plot. Negative Delta Yield means that the treated rice has lower yield than the untreated crop.
Granule formulations of samples 7-3 and 7-4 are used to treat rice plants in open fields. Typical amount of 1-MCP treated range from 10 g active ingredient (a.i.)/hectare (or 4 g a.i./acre) to 100 g a.i./hectare (or 40 g a.i/acre).
Optimum phonological stages of the rice plants range from maximum tillering through grain filling (for example at least one of: meiosis, complete open of flower, and grain filling). Typically only a single treatment of 1-MCP is performed before harvest, but multiple treatments of 1-MCP before harvest can also be performed. Treatment(s) of 1-MCP on rice plants show yield increase ranging from 14% to 28%, depending on the amount of 1-MCP and stage of treatment(s). Data of a field trial using single application of 50 g a.i./hectare 1-MCP with sample 7-3 (a granule formulation containing 1% 1-MCP) are shown in Table 9

Compound: CC1=CC1 [Sample 1-MCP, 1-methylcyclopropene]
- Yield (kg/ha) (individual treatments 8-1 to 8-4): 7340 kg/ha and 7450 kg/ha and 7865 kg/ha and 7715 kg/ha
- Mean (kg/ha) (mean of treatments 8-1 to 8-4): 7592.5 kg/ha
